Assay results: patent publication US11974993B2, “Solution formulations of CX-011” (City of Hope, priority 2021, dated 2024)
“Also recorded” adds a separate entry of the source.

Experiments:
pSTAT3 and MYC = conditions: disclosed in U.S. Patent Publication No. 2020/0377494A1; cited from earlier work
[1] = Properties of the CX-011 solution in Kolliphor HS 15: pH, 0.22 um filtration with UV absorbance at 323 nm, storage stability by appearance and HPLC; format: physicochemical
Method: Preparation of 30% (w/v) Kolliphor HS 15 in aqueous solution. Solid Kolliphor HS 15 was immersed in a water bath at 37° C. until melted. A 30% (w/v) solution was prepared by vortex mixing Kolliphor HS 15 with an appropriate amount of distilled water. The mixture was filtered through a 0.22 um PES filter (Corning).
(§1) 15 mg CX-011 was added to a 50 mL tube. A volume of 5-10 mL 30% kolliphor HS was added. […] Distilled water or other physiology buffer, for example, PBS or saline was added to the above completely dissolved solution to final volume 100 mL with gently stirring. The solution can be filtered through 0.22 um filter. The appearance and pH value was noted. The solution was clear with pH value 5-5.5 for water and saline solution and is 7.2 for PBS solution. […] The final Kolliphor HS concentration in solution is about 1.5%-3%.

[2] = system: aggrecan and collagen neoepitopes; conditions: disclosed in U.S. Patent Publication No. 2020/0377494A1; cited from earlier work
[3] = Dissolution of solid CX-011 in solvents and excipient solutions, determined by visual inspection; format: physicochemical
Method: Confirmation of dissolution can be confirmed by visual inspection, either by the naked eye or by microscope, to detect the presence of undissolved particles. Spectroscopic methods can also be used, such as light scattering detection or absorbance spectroscopy. Apparatuses for such spectroscopic detection are well-known in the art.
Solid CX-011 (5 mg) was mixed in a solution of 20%-40% 2-Hydroxypropyl)-β-cyclodextrin (Accelachem) in water (10 mL) and the mixture sonicated for 30 minutes. Dissolution determined by visual inspection. Not soluble.
Solid CX-011 (5 mg) was mixed in a solution of 20%-40% 2-Hydroxypropyl)-β-cyclodextrin (Accelachem) in water (10 mL) and 50 μL 1N HCl and the mixture sonicated for 30 minutes. Dissolution determined by visual inspection. Not soluble.
Solid CX-011 (4 mg) was mixed in a solution of 3N HCl aqueous (2 mL) and the mixture sonicated for 30 minutes. Dissolution determined by visual inspection. Not soluble.
Solid CX-011 (2.6 mg) was mixed in a solution of ˜4N HCl in methanol (200 uL) and the mixture sonicated for 30 minutes. Dissolution determined by visual inspection. Not soluble.
Solvent was evaporated. The remaining residue was washed with ether twice, then dried. The dried residue was mixed with water (10 mL) and the mixture sonicated for 30 minutes. Dissolution determined by visual inspection. Not soluble.
Solid CX-011 (1 mg) was mixed in a solution of 10% polyvinylpyrrolidone K-30 (10 mL) and the mixture sonicated for 30 minutes. Dissolution determined by visual inspection. Not soluble.
Solid CX-011 (1.5 mg) was mixed in ethanol (0.5 mL) and the mixture sonicated for 30 minutes. Dissolution determined by visual inspection. Not soluble.
Solid CX-011 (3 mg) was mixed in propylene glycol (0.5 mL) (Spectrum) and the mixture sonicated for 30 minutes. Dissolution determined by visual inspection. Not soluble.
Water (0.5 mL) was added.
Solid CX-011 (2.8 mg) was added to PEG400 (0.5 mL) (Spectrum) and mixed on a vortexer until dissolved. Water (0.5 mL) was added.
Solid CX-011 (3.0 mg) was mixed in 30% Kolliphor® HS 15 (5 mL) (Sigma) and the mixture sonicated for 30 minutes. Dissolution determined by visual inspection.
Solid CX-011 (15 mg) was mixed in polysorbate 80 (1 mL) and the mixture sonicated for 30 minutes. The solution was clear.
as §1

Difference of the concentration of CX-011 before or after filtration ([1]; Example 14: 0.22 um filter, UV absorbance at 323 nm): no significant difference | pH value of the solution ([1]; Example 14: PBS solution): 7.2 | pH value of the solution ([1]; Example 14: water and saline solution): 5-5.5 | Appearance of the solution on storage ([1]; Example 14 solution, after 1 week at room temperature): remained clear | Stability of the compound by HPLC analysis ([1]; Example 14 solution, under preparation and storage): stable | Dissolution by visual inspection ([3]; Example 1: 5 mg in 10 mL 20%-40% 2-hydroxypropyl-β-cyclodextrin in water, sonicated 30 minutes): Not soluble | Dissolution by visual inspection ([3]; Example 2: 5 mg in 10 mL 20%-40% 2-hydroxypropyl-β-cyclodextrin in water plus 50 μL 1N HCl, sonicated 30 minutes): Not soluble | Dissolution by visual inspection ([3]; Example 3: 4 mg in 2 mL 3N HCl aqueous, sonicated 30 minutes): Not soluble | Dissolution by visual inspection ([3]; Example 4: 2.6 mg in 200 uL ~4N HCl in methanol, sonicated 30 minutes): Not soluble | Dissolution by visual inspection ([3]; Example 5: 6 mg treated with 1 eq MeSO3H in CH2Cl2, evaporated, dried residue in 10 mL water, sonicated 30 minutes): Not soluble | Dissolution by visual inspection ([3]; Example 6: 1 mg in 10 mL 10% polyvinylpyrrolidone K-30, sonicated 30 minutes): Not soluble | Dissolution by visual inspection ([3]; Example 7: 1.5 mg in 0.5 mL ethanol, sonicated 30 minutes): Not soluble | Dissolution by visual inspection ([3]; Example 8: 3 mg in 0.5 mL propylene glycol, sonicated 30 minutes): Not soluble | Appearance after addition of water ([3]; Example 9: 4 mg in 0.5 mL DMA, then 0.5 mL water added): Precipitation was observed | Dissolution by visual inspection ([3]; Example 9: 4 mg in 0.5 mL DMA, vortexed): clear solution | Appearance after addition of water ([3]; Example 10: 2.8 mg in 0.5 mL PEG400, then 0.5 mL water added): Precipitation was observed | Dissolution by visual inspection ([3]; Example 10: 2.8 mg in 0.5 mL PEG400, vortexed): dissolved | Dissolution by visual inspection ([3]; Example 11: 3.0 mg in 5 mL 30% Kolliphor HS 15, sonicated 30 minutes): Dissolved—clear solution | Dissolution by visual inspection ([3]; Example 12: 15 mg in 1 mL polysorbate 80, sonicated 30 minutes): clear | Appearance after addition of water ([3]; Example 12: 15 mg in 1 mL polysorbate 80, then 10 mL water added): precipitate was observed | Appearance of the diluted solution ([3]; Example 14: 15 mg diluted to 100 mL with water, PBS or saline, final Kolliphor HS about 1.5%-3%): clear | Dissolution by visual inspection ([3]; Example 14: 15 mg in 5-10 mL 30% Kolliphor HS, sonicated 2 hours): clear solution
SMILES: Cc1ccc(-c2csc(NC(=O)c3ccccn3)n2)cc1 [CX-011]
Levels of pSTAT3 and MYC (pSTAT3 and MYC): did not increase | Generation of aggrecan and collagen neoepitopes [2]: almost completely blocked | Solubility in aqueous solution ([3]; aqueous solution, general statement): poorly soluble; also recorded: poor solubility
